The record followed here is patent US20160158309A1, “EXERCISE FUNCTION ENHANCER” (KOHJIN LIFE SCIENCES CO., LTD., priority 2014, published 2016).

One assay has as its system PGC-1α. Description: PGC-1α amount in soleus muscle by western blot. The assay is classed as in vivo, ICR mice. To be noted: treated vs control groups; oral once a day for two weeks, 2.0% solution 5 μl/g body weight; sedentary group soleus muscle. On the technique in general: In western blotting, separated proteins are transferred to a membrane and probed.
The nature of assay [1]: Muscle tissue pH after treadmill exercise in mice. The assay is classed as in vivo, ICR mice. Particulars: exercise group vs control exercise group; oral once a day for two weeks, 2.0% solution 5 μl/g body weight; treadmill 30 minutes at 25 m/min; tibialis anterior and gastrocnemis muscle.
Description: After anesthetic, intermuscular pH of the tibialis anterior muscle and the gastrocnemis muscle was measured using a micro-glass electrode (CMN-141, Chemical Instruments).
The experiment was conducted using 7-week-old male ICR mice (Shimizu Laboratory Supplies). After one week of preliminary care, the mice were separated into two groups based on body weight: a glutathione group (n=21) and a control group (n=21). Glutathione (KOHJIN Life Sciences Co., Ltd.) was prepared in a 2.0% solution and was administered orally once a day for two weeks to the glutathione group at a dose of 5 μl/g of body weight. The same amount of distilled water was administered orally to the control group for the same period of time. […] On the final day, the groups were further divided into a control sedentary group (n=13), a control exercise group (n=8), a glutathione sedentary group (n=13), and a glutathione exercise group (n=8). The exercise groups were given the task of running on a treadmill, after which all groups were dissected.
The exercise task employed a treadmill (MK680, Muromachi Kikai). On the day of the exercise task, the sedentary groups were dissected without performing the exercise task, while the exercise groups were given the task of running on a treadmill for 30 minutes at a speed of 25 m/min, then were dissected immediately after completing the exercise task.
All of the data was plotted with the mean value±standard error. After performing a two-way analysis of variance in comparing the four groups, a multiple comparison test (Bonferroni) was performed. Student's t-distribution test was performed when comparing two groups. Level of significance was defined at 5%.

“Also recorded” adds a separate entry of the source.

Description for PGC-1α: An amount of PGC-1α in the muscles was measured using a western blot test. Soleus muscle of a sedentary group was homogenized and protein concentration was measured using the BCA method (BCA™ Protein Assay Kit, Thermo [sequence]). The prepared protein sample was poured into 10% gel (Wako), was separated by electrophoresis, and was transferred to a membrane using a transfer device (iBlot, Invitrogen). After 30 minutes of blocking (EzBlokChemi, ATTO CORPORATION), the sample was cleaned three times for five minutes each in Tris buffered saline-(BIO-RAD Laboratories) Tween 20 (Wako) (TBST), and was reacted with a primary antibody using an anti-PGC-1α antibody (CHEMICON International) for 60 minutes at room temperature. The sample was then cleaned three times for five minutes each in TBST and was reacted with a secondary antibody using anti-rabbit antibody (GE Healthcare) for 60 minutes at room temperature. The sample was then cleaned three times for five minutes each in TBST and was reacted with a coloring agent (ECL plus, GE Healthcare) for four minutes. Using an image analysis device (ImageQuant LAS 4000, GE Healthcare), bands were detected and converted to numerical values. Thereafter, a relative ratio with respect to a control set was calculated.
The experiment was conducted using 7-week-old male ICR mice (Shimizu Laboratory Supplies). After one week of preliminary care, the mice were separated into two groups based on body weight: a glutathione group (n=21) and a control group (n=21). […] The same amount of distilled water was administered orally to the control group for the same period of time. A twelve-hour light/dark cycle was maintained in the enclosure and the mice were able to freely take food and water from a plastic gauge. On the final day, the groups were further divided into a control sedentary group (n=13), a control exercise group (n=8), a glutathione sedentary group (n=13), and a glutathione exercise group (n=8). The exercise groups were given the task of running on a treadmill, after which all groups were dissected. […]

Regarding `N[C@@H](CCC(=O)N[C@@H](CS)C(=O)NCC(=O)O)C(=O)O` [glutathione, γ-L-Glu-L-Cys-Gly], in the assay on PGC-1α, the “PGC-1α expression in the soleus muscles (relative ratio to control)” value is recorded as “significantly higher value; also recorded: an increase in PGC-1α expression”. Further, in assay [1], the “Muscle tissue pH” value is on record as “significantly higher value; also recorded: no reduction in muscle tissue pH was observed”.

Take `O=C1O[C@H]([C@@H](O)CO)C(O)=C1O` [vitamin C]: in the assay on PGC-1α, the “PGC-1α expression in the soleus muscles (relative ratio to control)” value is listed as “not observed”. Also, in assay [1], the “Muscle tissue pH” value was “not observed”.
